Measurements reported in patent publication US6136814A (priority 1997, dated 2000).
Values joined by “and” are separate entries in the source; they are usually repeats but may differ in a detail not shown here. Equal values may be shown once.

What was measured:
[1] = pH stability of aqueous acyclovir sodium under accelerated CO2 permeation conditions (Example 2); assay type: physicochemical; conditions: after 3 weeks
From the text: The solution was transferred, under a nitrogen atmosphere, to autoclaved filling equipment contained within a laminar air-flow hood to avoid particle and microbiological contamination. […] The filtered bulk solution and containers were purged with nitrogen during the filling process to avoid CO2 absorption. The process was repeated for polyethylene terephthalate vials and Daikyo Resin CZ vials (sold by Daikyo Gomu Seiko, Ltd, reported in some references as polymethylpentene).
The samples were tested under accelerated CO2 storage conditions. The samples were placed in three different chambers with elevated CO2 atmospheres, maintained at a concentration of approximately 2%, 5%, and 10% CO2 by volume, for 3 weeks. The pH was measured at various times using a calibrated standard pH meter.

[2] = calculated pH over time, 20 mL vial, normal atmospheric storage (Example 8)
Experimental: (§1) The atmospheric CO2 content, measured using a Dickson, Model CO2 X carbon dioxide recorder, was measured as 0.07% by volume and this value was used in the calculation.

[3] = calculated pH over time, 10 mL vial, normal atmospheric storage (Example 7)
Experimental: as §1

[4] = effect of CO2 on pH of aqueous acyclovir solution under accelerated conditions (Example 6); assay type: physicochemical
Experimental: The desiccators were evacuated and filled with the CO2 standards three consecutive times at the beginning of the experiment, and the filling process was repeated each week and each time the desiccators were opened for removing samples. The pressure in the desiccators was maintained at 1 atm. The pH was measured at various time intervals.

[5] = compatibility with container and seal materials, pH on storage (Example 3); assay type: physicochemical; conditions: polypropylene vials, RT and 40° C., three months
Experimental: At various time intervals, the samples were tested for pH. The pH was measured using a calibrated standard pH meter.

[6] = measured pH drop over 21 months under normal atmospheric conditions (Example 9); assay type: physicochemical
Experimental: For each vial, one half was stored in the upright position and the other half was stored in the inverted position. The pH was measured over time using a standard calibrated pH meter.

[7] = pH at which precipitation or haziness is observed; assay type: physicochemical
From the text: As indicated earlier, the pH of aqueous acyclovir sodium must be maintained above the pHp to avoid the formation of precipitates.

aqueous solubility = assay type: physicochemical; conditions: water, determined experimentally
[8] = effect of CO2 on pH of unbuffered aqueous sodium hydroxide in polypropylene vials (Example 1); assay type: physicochemical
From the text: This example represents the effect of CO2 on the pH of an unbuffered aqueous sodium hydroxide solution. […] The solution was placed in a series of identical polypropylene vials which were sealed and separated into two groups (Groups A and B). The vials were identical in every relevant parameter, including average wall thickness, surface area, and stoppers. The sodium hydroxide solution in all samples were taken from the same lot and each vial was filled under identical filling conditions. Samples in group A were stored under normal atmospheric conditions. Samples in group B were placed in a 5.8 L desiccator along with a beaker containing 50 mL of 1N aq. HCl (0.05 moles HCl). After carefully adding 100 mL of 0.5M NaHCO3 (0.05 moles NaHCO3) to the HCl solution, the desiccator was immediately sealed to prevent escape of the resulting CO2 (approximately 0.05 moles CO2). The calculated concentration of CO2 in the chamber was approximately 18% by volume. The samples were allowed to stand for 3 weeks under the aforesaid conditions. The pH of the samples in the containers was measured using a calibrated standard pH meter.

[9] = cited from earlier work
[10] = depending on the desired concentration; cited from earlier work

Nc1nc2c(ncn2COCCO)c(=O)[nH]1 [acyclovir sodium]
precipitate ([1]; 2%, 5% and 10% CO2): no precipitate was observed | pH decline ([1]; 5% CO2): 0.33 pH units | pH decline ([1]; 10% CO2): 0.48 pH units | shelf life [2]: greater than 24 months | shelf life [3]: greater than 24 months | initial pH in the absence of CO2 ([4]; 54.9 mg/mL, with purging headspace): 11.3 | Measured pH ([4]; 2.00% CO2, 10 mL vials, 14 days): 11.10 | Measured pH ([4]; 2.00% CO2, 10 mL vials, 16 days): 11.08 | Measured pH ([4]; 2.00% CO2, 10 mL vials, 20 days): 11.03 | Measured pH ([4]; 2.00% CO2, 10 mL vials, 23 days): 11.03 | Measured pH ([4]; 2.00% CO2, 10 mL vials, 27 days): 11.01 | Measured pH ([4]; 2.00% CO2, 20 mL vials, 14 days): 11.12 | Measured pH ([4]; 2.00% CO2, 20 mL vials, 16 days): 11.10 | Measured pH ([4]; 2.00% CO2, 20 mL vials, 20 days): 11.07 | Measured pH ([4]; 2.00% CO2, 20 mL vials, 23 days): 11.05 | Measured pH ([4]; 2.00% CO2, 20 mL vials, 27 days): 11.02 | Measured pH ([4]; 10.1% CO2, 10 mL vials, 6 days): 10.94 | Measured pH ([4]; 10.1% CO2, 10 mL vials, 9 days): 10.87 | Measured pH ([4]; 10.1% CO2, 10 mL vials, 14 days): 10.70 | Measured pH ([4]; 10.1% CO2, 20 mL vials, 6 days): 10.97 | Measured pH ([4]; 10.1% CO2, 20 mL vials, 9 days): 10.90 | Measured pH ([4]; 10.1% CO2, 20 mL vials, 14 days): 10.74 | precipitation upon visual inspection [5]: no precipitation was observed | impurities by HPLC ([5]; Teflon coated stoppers): no significant impurities were generated | precipitates ([6]; after 21 months): no precipitates were detected | acceptable for parenteral administration ([6]; normal atmospheric conditions, upright or inverted): at least 21 months | shelf life ([6]; real time, normal atmospheric conditions): at least 21 months | pH at which precipitation becomes apparent ([7]; 54.9 mg/mL aqueous solution, actual observations): < 10.8 | pH below which haziness is observed ([7]; about 55 mg/mL acyclovir sodium): < 10.8 | solubility (aqueous solubility): 644 mg/mL

[Na+].[OH-] [sodium hydroxide]
pH ([8]; Group A normal atmosphere, 1 week): 11.22 | pH ([8]; Group A normal atmosphere, 3 weeks): 11.21 | pH ([8]; Group A normal atmosphere, initial): 11.31 | pH ([8]; Group B CO2 chamber (approx. 18% CO2 by vol.), 3 weeks): 6.37 | pH ([8]; Group B CO2 chamber (approx. 18% CO2 by vol.), initial): 11.31

Nc1nc2c(ncn2COCCO)c(=O)[nH]1 [acyclovir, 2-amino-1,9-dihydro-9-[(2-hydroxy-ethoxy)methyl]-6H-purin-6-one]
water solubility, neutral form ([9]; undissociated acyclovir, in words): virtually insoluble in water | aqueous solubility, neutral form ([9]; water, ambient temperature, Pharm. Res., vol. 8, p. 1087 (1991)): 6.2 mM and ~6.2 mM | pH required to maintain an aqueous solution [10]: 10-11
